Where “and” joins values, the source holds several entries; their conditions need not be identical. Equal values may be shown once. Read-outs that look alike come from different tables or passages of the source. Marks after values point to notes of the source that are not given here.
What was measured:
[1] = literature value; cited from earlier work
[2] = Langmuir isotherms of phospholipid monolayers; format: physicochemical; conditions: 21.5° C
From the text: The interfacial phase behaviour of lipids and phospholipids is an important area of study. Data from Langmuir isotherms can give insight into packing behaviour and collapse mechanisms of phospholipid monolayers. FIG. 1 presents the Langmuir isotherms for 1,2-SiPC, 1,3-SiPC, 1,2-dipalmitoyl-sn-3-phosphocholine (DPPC), and 1-palmitoyl-2-oleoyl-sn-3-phosphocholine (POPC). DPPC and POPC are biologically relevant lipids that are commonly used as model systems in the study of membrane topology. These two lipids differ in the degree of unsaturation with POPC containing a single unit of unsaturation in the oleic acid FA chain. […] The surface area at the collapse of 1,2-SiPC was approximately 70 Å^2 and that for 1,3-SiPC was 87 Å^2. Both of these values are larger than those observed for DPPC and POPC.
While not wishing to be bound by theory, the larger size of the siloxane tails strongly affects the mean molecular area of the lipid as well as the lipid area at monolayer collapse. Furthermore, the rotational freedom of the siloxane unit leads to behaviour similar to that for unsaturated phospholipids such as POPC.

[3] = fixed using experimentally determined volume, cited from earlier work; for ρH (fit parameter, headgroup electron density relative to water): 20° C
[4] = Small-angle X-ray scattering (SAXS) of vesicle suspensions, 3-Gaussian electron density model; format: physicochemical; conditions: for derived lipid volume / derived lipid volume relative to the volume from the atomic covalent radii: 3-Gaussian model; for ρC (fit parameter, hydrocarbon chain electron density relative to water) / zH (fit parameter, position of headgroup Gaussian) / σC (fit parameter, standard deviation of hydrocarbon Gaussian) / σH (fit parameter, standard deviation of headgroup Gaussian): 20° C, POPC ULVs with 5 mol % POPG; for ρC (fit parameter, hydrocarbon chain electron density relative to water): extruded 100 nm, SiPC freeze-thaw; for ρC (fit parameter, hydrocarbon chain electron density relative to water) / SAXS curve: bilayer-bilayer structure factor (Bragg peak), lamellarity: not extruded; for zH (fit parameter, position of headgroup Gaussian) / σC (fit parameter, standard deviation of hydrocarbon Gaussian) / σH (fit parameter, standard deviation of headgroup Gaussian): extruded, SiPC not extruded; for SAXS curve: bilayer-bilayer structure factor (Bragg peak), lamellarity: freeze-thaw liposomes
Protocol: (§1) SiPCs were prepared as described above in Example 1. Aqueous dispersions of SiPCs were prepared by five freeze-thaw cycles to give opaque suspensions of vesicles suitable for Small-angle X-ray scattering (SAXS) analysis. Dispersion particle size was determined by dynamic light scattering (DLS) with a Nano Zetasizer ZS90 (Malvern Instruments, Worcestershire, U.K.).
(§2) 1-Palmitoyl-2-oleoyl-sn-3-glycercophosphocholine (POPC) and 1-palmitoyl-2-oleoyl-sn-3-glcyercophosphoglycerol (POPG) were purchased from Avanti Polar Lipids (Alabaster, Ala.) and used as received. POPC and 5 mol % POPG were co-dissolved in a chloroform:methanol (3:1) mixture. POPC was doped with 5 mol % POPG, to minimize pauci-lamellar vesicle contamination. Solvent was removed under a gentle stream of dry nitrogen gas then was put under vacuum for 8 hours. POPC:POPG film was hydrated with ultrapure water to a concentration of ˜30 mg/mL. ULVs were prepared using a manual miniextruder (Avanti Polar Lipids, Alabaster, Ala.), assembled with a 100 nm pore-diameter polycarbonate filter. The lipid suspension was passed through the filter 31 times. SAXS data were collected at the P12 BioSAXS beamline at the storage ring PETRA III (synchrotron DESY, Hamburg)^26 at a temperature of 20° C. SAXS data were visualized, averaged and the background was subtracted using ATSAS^27 and modelled using the method of Pabst et al.^28 The data was fit utilizing a standard non-linear least-squares fitting (NLSF) scheme within Origin (OriginLab, USA). Vesicle size was determined by dynamic light scattering (DLS) with a Nano Zetasizer ZS90 (Malvern Instruments, Worcestershire, U.K.)
SAXS is sensitive to the presence of multilamellar vesicles (MLVs) and is used to evaluate the presence of MLVs. Shown in FIG. 2 are SAXS data for an about 40 mM POPC vesicle suspension in water as 100 nm ULV (black) and MLVs (gray). For MLVs, density correlations between the stacked bilayers give rise to a bilayer-bilayer structure factor also known as Bragg Peaks at a length scale corresponding to integer multiples of the lamellar repeat distance (e.g., the first Bragg order at q˜0.1 Å^−1, corresponding to a lamellar repeat distance of ˜63 Å).
The scattering regime where bilayer structure (as opposed to vesicle sphericity) dominates the form factor is of most interest as information about vesicle size is obtained from the DLS. The scattered intensity of a dilute vesicle suspension is given by:
The functional model chosen to describe the electron density of the siloxane phospholipids is the three Gaussian model as outlined by Pabst et al. (2000).^28 In this model, the electron distribution is the summation of the headgroups, described by a single Gaussian (in total 2, one for each leaflet of the bilayer) and a Gaussian representing the hydrocarbon chains, Eqn 2.
The position of the Gaussian peak is at zi where i=H or C and zC=0, with a standard deviation of σi. For simplicity, ρH−ρw and ρC−ρw are referred to herein as ρH and ρC respectively. The form factor of this electron density model can then be calculated analytically by applying Eqn 3: F(q)=∫ρ(z)exp(iqz)dz (3) which yields:
Only the cosine terms remain due to the centrosymmetric nature of a single component lipid bilayer. A benefit of this method is that structural parameters can be derived from simple geometric relationships, without the need of volumetric data. Typically area per lipid AL is one of the more desirable structural parameters to be extracted from the data. To begin, the transverse structure of the bilayer is derived (along the bilayer normal), such as the hydrocarbon length (dC) and the headgroup thickness (dH). Simply, dH can be estimated from the full width at half maximum (FWHM) of the Gaussian describing the headgroups. Using dH, dC can be determined as: […]

[5] = Dynamic light scattering (DLS) of liposome suspensions; format: physicochemical; conditions: for Dia. (vesicle diameter, most abundant population) / Rel. pop. (most abundant population) / Dia. (vesicle diameter, second population) / Rel. pop. (second population): aqueous suspension; for Dia. (vesicle diameter, most abundant population): POPC with 5 mol % POPG extruded through 100 nm membrane, SiPC not extruded; for Rel. pop. (most abundant population): first population; for polydispersity: most abundant population, liposomes not extruded
Protocol: POPC ULVs contain 5 mol % of 1-palmitoyl-2-oleoyl-sn-3-glcyercophosphoglycerol (POPG) and were extruded through a 100 nm polycarbonate membrane. SiPC suspensions were not extruded.
as §1, §2
The diameter standard deviation (a) for the vesicles (most abundant population) was below 20% of the diameter for liposomes of 1,2-SiPC and 1,3-SiPC, thus implying very low polydispersities of 0.16 and 0.19 respectively.

[6] = literature SDP model; cited from earlier work
[7] = geometrically derived from SAXS fit

| surface area at the collapse of the monolayer [2] | derived lipid volume [4] [Å^3] | derived lipid volume relative to the volume from the atomic covalent radii [4] [factor] | ρC (fit parameter, hydrocarbon chain electron density relative to water) [4] [e/Å^3] | zH (fit parameter, position of headgroup Gaussian) [4] [Å] | σC (fit parameter, standard deviation of hydrocarbon Gaussian) [4] [Å] | σH (fit parameter, standard deviation of headgroup Gaussian) [4] [Å] | AL (area per lipid) [4, 7] | VC (hydrocarbon volume) [4, 7] [Å^3] | dB (bilayer thickness) [4, 7] | dC (hydrocarbon length) [4, 7] | dH (headgroup thickness) [4, 7] [Å] | dHH (headgroup-headgroup distance) [4, 7] | Dia. (vesicle diameter, most abundant population) [5] [nm] | Rel. pop. (most abundant population) [5] [%] | Dia. (vesicle diameter, second population) [5] [nm] | Rel. pop. (second population) [5] [%] | Compound | ρH (fit parameter, headgroup electron density relative to water) [3] | VH (PC headgroup volume) [3] | SAXS curve: bilayer-bilayer structure factor (Bragg peak), lamellarity [4] | further results |
| --- | --- | --- | --- | --- | --- | --- | --- | --- | --- | --- | --- | --- | --- | --- | --- | --- | --- | --- | --- | --- | --- |
|  |  |  |  |  |  |  |  |  |  |  |  |  |  |  |  |  | CC(C)CCCC(C)CCCC(C)CCCC(C)CC(=O)OC[C@H](COP(=O)([O-])OCC[N+](C)(C)C)OC(=O)CC(C)CCCC(C)CCCC(C)CCCC(C)C (stereo partly drawn) [diPhyPC, 1,2-diphytanoyl-sn-glycero-3-phosphatidylcholine] |  |  |  | AL (area per lipid) [1]: 78 Å^2 |
| approximately 70 Å^2 | 1574 | 7 | −0.106 ± 0.002 | 18.2 ± 0.05 | 14.1 ± 0.2 | 4.6 ± 0.1 | 69 ± 2 Å^2 | 1243 ± 42 | 45.5 ± 0.3 Å | 9.9 ± 0.5 Å | 9.1 ± 0.3 | 36.3 ± 0.1 Å | 193.7 | 79 | 949.8 | 21 | C[N+](C)(C)CCOP(=O)([O-])OCC(COC(=O)CCCCCCCCC[Si](C)(C)O[Si](C)(C)O[Si](C)(C)C)OC(=O)CCCCCCCCC[Si](C)(C)O[Si](C)(C)O[Si](C)(C)C (racemic) [1,2-SiPC] | 0.1609^a e/Å^3 | 331^a Å^3 | without the presence of a bilayer-bilayer structure factor (Bragg Peak) | polydispersity [5]: 0.16 |
| 87 Å^2 | 1577 | 7 | −0.101 ± 0.003 | 17.6 ± 0.1 | 13.3 ± 0.3 | 4.3 ± 0.2 | 72 ± 4 Å^2 | 1246 ± 81 | 43.9 ± 0.4 Å | 13.2 ± 0.2 Å | 8.6 ± 0.5 | 35.3 ± 0.1 Å | 123.4 | 89 | 684.9 | 11 | C[N+](C)(C)CCOP(=O)([O-])OC(COC(=O)CCCCCCCCC[Si](C)(C)O[Si](C)(C)O[Si](C)(C)C)COC(=O)CCCCCCCCC[Si](C)(C)O[Si](C)(C)O[Si](C)(C)C [1,3-SiPC] | 0.1609^a e/Å^3 | 331^a Å^3 | without the presence of a bilayer-bilayer structure factor (Bragg Peak) | polydispersity [5]: 0.19 |
|  |  |  | −0.152 ± 0.002 | 18.16 ± 0.08 | 6.9 ± 0.2 | 3.77 ± 0.06 | 58.9 ± 2^ Å^2 | 961 ± 27 | 43.7 Å and 43.7 ± 0.2 Å | 14.4 Å and 14.4 ± 0.1 Å | 7.5 ± 0.2 | 36.3 Å and 36.3 ± 0.1 Å | 98.1 | 100 |  |  | CCCCCCCC/C=C\CCCCCCCC(=O)O[C@H](COC(=O)CCCCCCCCCCCCCCC)COP(=O)([O-])OCC[N+](C)(C)C [POPC, 1-palmitoyl-2-oleoyl-sn-3-phosphocholine, reference compound] | 0.1609^a e/Å^3 | 331^a Å^3 |  | lamellar repeat distance ([4]; about 40 mM POPC MLVs in water, first Bragg order at q~0.1 Å^-1): ~63 Å; derived AL (area per lipid) [4, 7]: 58.9±2 Å; AL, SDP model derived [6]: 62.7±1 Å; dB (bilayer thickness), SDP analysis [6]: 39.8 Å; dC (hydrocarbon length), SDP analysis [6]: 14.6 Å; dHH (headgroup-headgroup distance), SDP analysis [6]: 37.4 Å |
